Laboratory results taken from patent US11912693B2, “Compounds for modulating S1P1 activity and methods of using the same” (TREVENA, INC., priority 2017, dated 2024).

Legend:
[1] = molecular target: T1, human sphingosine-1-phosphate receptor 1 (S1P1) (Homo sapiens (Human), UniProt P21453); assay: Inhibition of cAMP production (HTRF cAMP HiRange), S1P1 CHO-K1 cells; type: cell-based; conditions: for Emax: CHO-K1, efficacy (SPAN) normalized to fingolimod, read-out: hS1P1 cAMP SPAN
Summary of the method: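 CHO-K1 cells stably co-expressing human S1P1 (C-terminal Prolink tag) and EA-β-arrestin2 were grown in AssayComplete Media 6 at 37° C. and 5% CO2, plated, and incubated overnight. Agonist-driven inhibition of intracellular cAMP was read by TR-FRET with the HTRF cAMP HiRange kit on a PheraStar reader. Potency is pEC50, and efficacy (SPAN) is normalized to fingolimod.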
Target sequence in this assay (P21453 whole entry, looked up): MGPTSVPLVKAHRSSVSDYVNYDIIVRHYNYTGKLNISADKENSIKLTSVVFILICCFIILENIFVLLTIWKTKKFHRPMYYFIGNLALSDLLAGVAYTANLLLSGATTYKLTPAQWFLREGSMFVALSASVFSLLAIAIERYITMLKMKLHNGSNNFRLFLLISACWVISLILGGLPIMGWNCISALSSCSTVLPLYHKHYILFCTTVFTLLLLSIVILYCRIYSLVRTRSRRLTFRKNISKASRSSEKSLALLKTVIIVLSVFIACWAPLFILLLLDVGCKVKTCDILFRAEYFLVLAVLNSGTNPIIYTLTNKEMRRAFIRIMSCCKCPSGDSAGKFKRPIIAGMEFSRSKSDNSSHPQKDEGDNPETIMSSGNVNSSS

[2] = molecular target: T1, human sphingosine-1-phosphate receptor 1 (S1P1); assay: β-Arrestin2 recruitment assay (PathHunter), S1P1 CHO-K1 cells; type: cell-based; conditions: for Emax: CHO-K1, efficacy (SPAN) normalized to fingolimod, read-out: hS1P1 B-arrestin2 SPAN
Summary of the method: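 Enzyme-fragment complementation read-out: agonist-driven β-arrestin2 binding to ProLink-tagged human S1P1 in stable CHO-K1 cells restores β-galactosidase, measured 1 h at room temperature after a 60 min 37° C. compound incubation. Potency as pEC50, efficacy relative to fingolimod (SPAN).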
Target sequence in this assay (P21453 whole entry, looked up): as above
Target sequence in this assay (P32121 whole entry partner, looked up): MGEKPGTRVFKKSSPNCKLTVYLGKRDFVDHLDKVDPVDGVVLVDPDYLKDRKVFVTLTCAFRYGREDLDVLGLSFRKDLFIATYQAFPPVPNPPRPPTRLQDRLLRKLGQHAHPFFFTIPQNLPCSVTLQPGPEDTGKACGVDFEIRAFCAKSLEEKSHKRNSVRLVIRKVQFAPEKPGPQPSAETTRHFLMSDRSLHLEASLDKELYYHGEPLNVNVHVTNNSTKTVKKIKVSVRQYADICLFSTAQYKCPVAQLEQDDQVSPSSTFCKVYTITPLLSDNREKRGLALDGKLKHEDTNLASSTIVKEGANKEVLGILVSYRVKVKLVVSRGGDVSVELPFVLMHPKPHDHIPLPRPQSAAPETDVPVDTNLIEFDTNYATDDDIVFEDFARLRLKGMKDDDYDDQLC

[3] = inhibition of cAMP production, S1P1 CHO-K1 cells
[4] = β-arrestin2 recruitment, S1P1 CHO-K1 cells

Row | Structure (SMILES) | Emax [1] | hS1P1 cAMP pEC50 [1, 3] | Emax [2] | hS1P1 B-arrestin2 pEC50 [2, 4] | EC50 ([1]; inhibition of cAMP production, S1P1 CHO-K1 cells, read-out: hS1P1 cAMP pEC50 (converted)) | EC50 ([2]; β-arrestin2 recruitment, S1P1 CHO-K1 cells, read-out: hS1P1 B-arrestin2 pEC50 (converted))
1 | CCC1(CC)CC(=O)c2cc(-c3nnc(-c4ccc5c(c4)nnn5C(C)C)o3)ccc2O1 [Compound 223, 2,2-diethyl-6-(5-(1-isopropyl-1H-benzo[d][1,2,3]triazol-5-yl)-1,3,4-oxadiazol-2-yl)chroman-4-one] | < 75% | <6.5 | < 75% | <5 |  | 
2 | CCc1ccccc1-c1nc(-c2ccc3c(c2)nnn3CC(C)(C)CO)no1 [Compound 527, 3-(5-(5-(2-ethylphenyl)-1,2,4-oxadiazol-3-yl)-1H-benzo[d][1,2,3]triazol-1-yl)-2,2-dimethylpropan-1-ol] |  | <6.5 |  | <5 |  | 
3 | CC(C)Nc1ccc(-c2nnc(-c3ccc4[nH]c(=O)oc4c3)o2)cc1C#N [Compound 484, 5-[5-(2-oxo-2,3-dihydro-1,3-benzoxazol-6-yl)-1,3,4-oxadiazol-2-yl]-2-[(propan-2-yl)amino]benzonitrile] |  | >6.5 |  | >5 |  | 
4 | COc1ccc(-c2cnc(-c3ccc4c(c3)nnn4C(C)C)s2)cc1 [Compound 109, 2-(1-isopropyl-1H-benzo[d][1,2,3]triazol-5-yl)-5-(4-methoxyphenyl)thiazole] | < 75% | <6.5 | < 75% | >5 |  | 
5 | COc1ccccc1-c1nnc(-c2ccc3c(c2)CCC(=O)N3)o1 [Compound 341, 6-[5-(2-methoxyphenyl)-1,3,4-oxadiazol-2-yl]-1,2,3,4-tetrahydroquinolin-2-one] |  | <6.5 |  | <5 |  | 
6 | Brc1ccccc1-c1nc(-c2ccc3c(c2)nnn3C2CCCC2)no1 [Compound 40, 5-(2-bromophenyl)-3-(1-cyclopentyl-1H-benzo[d][1,2,3]triazol-5-yl)-1,2,4-oxadiazole] |  | >6.5 |  | >5 |  | 
7 | COc1ccccc1-c1noc(-c2ccc3c(c2)nnn3C2CC2)n1 [Compound 173, 1-cyclopropyl-5-[3-(2-methoxyphenyl)-1,2,4-oxadiazol-5-yl]-1H-1,2,3-benzotriazole] | > 75% | >6.5 | > 75% | >5 |  | 
8 | Cc1ccc2nc(-c3ccc4c(c3)nnn4CC(C)C)oc2c1 [Compound 448, 2-(1-isobutyl-1H-benzo[d][1,2,3]triazol-5-yl)-6-methylbenzo[d]oxazole] |  | <6.5 |  | <5 |  | 
9 | CC(C)n1nnc2cc(-c3nc(-c4cccs4)co3)ccc21 [Compound 459, 1-(propan-2-yl)-5-[4-(thiophen-2-yl)-1,3-oxazol-2-yl]-1H-1,2,3-benzotriazole] | > 75% | <6.5 | > 75% | <5 |  | 
10 | c1ccc(-c2noc(-c3ccc4c(c3)nnn4C3CCCCC3)n2)cc1 [Compound 292, 1-cyclohexyl-5-(3-phenyl-1,2,4-oxadiazol-5-yl)-1H-1,2,3-benzotriazole] | < 75% | <6.5 | < 75% | <5 |  | 
11 | CC(C)n1nnc2cc(-c3nc4c(o3)CCc3sccc3-4)ccc21 [Compound 456, 4-[1-(propan-2-yl)-1H-1,2,3-benzotriazol-5-yl]-5-oxa-10-thia-3-azatricyclo[7.3.0.0^2,6]dodeca-1(9),2(6),3,11-tetraene] | > 75% | >6.5 | > 75% | <5 |  | 
12 | CC(C)n1nnc2cc(-c3nc4c(ccc5sccc54)o3)ccc21 [Compound 457, 4-[1-(propan-2-yl)-1H-1,2,3-benzotriazol-5-yl]-5-oxa-10-thia-3-azatricyclo[7.3.0.0^2,6]dodeca-1(9),2(6),3,7,11-pentaene] | > 75% | >6.5 | > 75% | <5 |  | 
13 | COc1cccc(-c2cnc(-c3ccc4c(c3)nnn4C(C)C)s2)c1 [Compound 108, 2-(1-isopropyl-1H-benzo[d][1,2,3]triazol-5-yl)-5-(3-methoxyphenyl)thiazole] | < 75% | >6.5 | < 75% | <5 |  | 
14 | Cc1cccc2nc(-c3ccc4c(c3)nnn4CC(C)C)oc12 [Compound 449, 2-(1-isobutyl-1H-benzo[d][1,2,3]triazol-5-yl)-7-methylbenzo[d]oxazole] |  | <6.5 |  | <5 |  | 
15 | CCC1(CC)CC(=O)c2cc(-c3nc(-c4cccc(Cl)c4)no3)ccc2O1 [Compound 261, 6-[3-(3-chlorophenyl)-1,2,4-oxadiazol-5-yl]-2,2-diethyl-chroman-4-one] |  | <6.5 |  | >5 |  | 
16 | Cc1ccccc1-c1c[nH]c(-c2ccc3c(c2)nnn3C(C)C)c1 [Compound 516, 5-[4-(2-methylphenyl)-1H-pyrrol-2-yl]-1-(propan-2-yl)-1H-1,2,3-benzotriazole] | < 75% | <6.5 | < 75% | >5 |  | 
17 | CCC1(CC)CC(=O)c2cc(-c3nc(-c4ccoc4)no3)ccc2O1 [Compound 495, 2,2-diethyl-6-(3-(furan-3-yl)-1,2,4-oxadiazol-5-yl)chroman-4-one] |  | >6.5 |  | >5 |  | 
18 | CCCCC1(CCCC)CC(=O)c2cc(-c3nc(-c4cccnc4)no3)ccc2O1 [Compound 188, 2,2-dibutyl-6-[3-(pyridin-3-yl)-1,2,4-oxadiazol-5-yl]-3,4-dihydro-2H-1-benzopyran-4-one] | < 75% | <6.5 | < 75% | <5 |  | 
19 | Oc1ccc(-c2noc(-c3ccc4c(c3)nnn4C3CCCC3)n2)cc1 [Compound 13, 4-[5-(1-cyclopentyl-1H-1,2,3-benzotriazol-5-yl)-1,2,4-oxadiazol-3-yl]phenol] |  | >6.5 |  | >5 |  | 
20 | Cc1ccccc1-c1cc(-c2ccc3c(c2)nnn3C(C)C)n(C)c1 [Compound 517, 5-[1-methyl-4-(2-methylphenyl)-1H-pyrrol-2-yl]-1-(propan-2-yl)-1H-1,2,3-benzotriazole] | < 75% | <6.5 | < 75% | >5 |  | 
21 | CCC1(CC)CC(=O)c2cc(-c3nsc(-c4ccc5c(c4)nnn5C(C)C)n3)ccc2O1 [Compound 143, 2,2-diethyl-6-(5-(1-isopropyl-1H-benzo[d][1,2,3]triazol-5-yl)-1,2,4-thiadiazol-3-yl)chroman-4-one] | < 75% | <6.5 | < 75% | <5 |  | 

More lines, now with the values ahead:

Row | Emax [1] | hS1P1 cAMP pEC50 [1, 3] | Emax [2] | hS1P1 B-arrestin2 pEC50 [2, 4] | EC50 ([1]; inhibition of cAMP production, S1P1 CHO-K1 cells, read-out: hS1P1 cAMP pEC50 (converted)) | EC50 ([2]; β-arrestin2 recruitment, S1P1 CHO-K1 cells, read-out: hS1P1 B-arrestin2 pEC50 (converted)) | Structure (SMILES)
22 | < 75% |  | < 75% |  | > 0.316 µM | > 10 µM | O=C(O)Cn1nnc2cc(-c3noc(-c4ccccc4Br)n3)ccc21 [Compound 195, 2-(5-(5-(2-bromophenyl)-1,2,4-oxadiazol-3-yl)-1H-benzo[d][1,2,3]triazol-1-yl)acetic acid]
23 |  | <6.5 |  | <5 |  |  | Cc1cncc(-c2nc(-c3ccc4c(c3)nnn4C(C)C)no2)c1 [Compound 159, 3-(1-isopropyl-1H-benzo[d][1,2,3]triazol-5-yl)-5-(5-methylpyridin-3-yl)-1,2,4-oxadiazole]
24 | > 75% | <6.5 | > 75% | <5 |  |  | CC(C)n1nnc2cc(-c3nc4ccncc4o3)ccc21 [Compound 503, 2-(1-isopropyl-1H-benzo[d][1,2,3]triazol-5-yl)oxazolo[5,4-c]pyridine]
25 | < 75% | <6.5 | < 75% | <5 |  |  | Cc1ccncc1-c1noc(-c2ccc3nnn(C(C)C)c3c2)n1 [Compound 264, 6-[3-(4-methylpyridin-3-yl)-1,2,4-oxadiazol-5-yl]-1-(propan-2-yl)-1H-1,2,3-benzotriazole]
26 |  | >6.5 |  | >5 |  |  | CC(C)n1ccc2cc(-c3noc(-c4ccncc4F)n3)ccc21 [Compound 399, 5-(3-fluoropyridin-4-yl)-3-(1-isopropyl-1H-indol-5-yl)-1,2,4-oxadiazole]
27 | > 75% | >6.5 | > 75% | >5 |  |  | Cc1ccccc1-c1noc(-c2ccc3c(cnn3C(C)C)c2)n1 [Compound 329, 5-(1-isopropyl-1H-indazol-5-yl)-3-(o-tolyl)-1,2,4-oxadiazole]
28 |  | <6.5 |  | <5 |  |  | CCCn1nnc2cc(-c3nc(-c4cccc(C)c4)no3)ccc21 [Compound 54, 5-[3-(3-methylphenyl)-1,2,4-oxadiazol-5-yl]-1-propyl-1H-1,2,3-benzotriazole]
29 | > 75% | <6.5 | > 75% | >5 |  |  | CC(C)n1ccc2cc(-c3nc(-c4cccc5c4OCO5)no3)ccc21 [Compound 326, 3-(benzo[d][1,3]dioxol-4-yl)-5-(1-isopropyl-1H-indol-5-yl)-1,2,4-oxadiazole]
30 |  | >6.5 |  | <5 |  |  | CC(C)n1nnc2cc(-c3ncc(-c4ccccc4F)s3)ccc21 [Compound 63, 5-(2-fluorophenyl)-2-(1-isopropyl-1H-benzo[d][1,2,3]triazol-5-yl)thiazole]
